# Where two headings read alike, the source gives them in different places. Non-standard residues stand in square brackets, D forms with d. Residues, ends and D or L forms follow the SMILES beside them. pY = N[C@@H](Cc1ccc(OP(=O)(O)O)cc1)C(=O)O
# How the values were obtained:
# [1] = test system: α-phosphotyrosine antibody (α-pTyr 100); assay: Titration of α-pY antibody on peptide microarrays; format: binding; details: for affinity of the α-pY antibody (in words): compared with the other pY peptides; for Kd: peptide microarray, α-pY antibody 0.06 to 6.66 nM, 3 h at 4 °C, indirect immunofluorescence (Alexa633), bimolecular binding isotherm (Eq. 1), average ± standard deviation, six independent experiments
# Protocol: (§1) Peptides that correspond to known interaction motifs involved in the formation of protein complexes in T cell signalling were purchased from EMC microcollections (Tübingen, Germany). All peptides carried an extra cysteine residue and a free N-terminus for immobilisation on the microarray substrates and a C-terminal amidation (see Electronic Supplementary Material (ESM), Table S1).
# (§2) For generation of microarrays, peptide stock solutions (3 mM) in DMF were diluted 30 times with phosphate buffer (100 mM, pH 8) supplemented with 0.006 % (v/v) Triton X-100. N-Hydroxysuccinimide-preactivated slides served as substrates for immobilisation (Nexterion Slide H, Schott Nexterion/Peq-Lab, Erlangen, Germany) using a Nano-Plotter NP2.0 (GeSIM, Großerkmannshof, Germany), which employs piezo-driven pipetting tips to dispense peptide solutions. Microarray slides comprised 16 subarrays of doublets of each peptide. For each peptide, a volume of 1.2 nl was dispensed at a centre-to-centre spacing of 500 μm. During printing, temperature was maintained at 15 °C and air humidity at 65 %.
# (§3) Sixteen incubation chambers with identical subarrays consisting of peptides derived from binding motifs of signalling proteins (see ESM Table S1) were generated by attaching a clip-on frame to the microarray substrate (ProPlate Multiarray System, Grace Biolabs, Molecular Probes, Eugene, OR, USA). The typical incubation volume for the subarrays was 50 μl. Microarrays were either incubated with an α-pY antibody (α-pTyr 100, 9411, Cell Signalling, Frankfurt am Main, Germany) at the indicated concentrations or co-incubated with cell lysate at the indicated concentrations for 3 h at 4 °C. Additionally, in another set of experiments, recombinant GRB2-SH2 was incubated on microarrays alone or co-incubated with cell lysate employing an α-penta HIS antibody (34600, Qiagen, Hilden, Germany) for the detection of His-tagged GRB2-SH2.
# (§4) After incubation, microarrays were washed three times with washing buffer (PBS, 0.05 % (w/v) BSA, 0.05 % (w/v) Tween-20). For the detection of signals, microarrays were incubated with a secondary α-mouse antibody conjugated with Alexa633 (A-21050, Invitrogen) at a concentration of 1 μg/ml for 15 min at RT followed by a last washing step with washing buffer. Microarrays were dried with nitrogen and scanned using a ProScanArray (PerkinElmer Life Sciences, Waltham, Massachusetts), and the data were analysed using ArrayPro Analyzer software (Media Cybernetics, Silver Spring, USA) as described before. Final data represented the mean signal intensities corrected for the median of a ring-shaped local background surrounding the respective peptide spot. Titrations with α-pY antibody and GRB2-SH2 were performed to calculate dissociation constants (see below).
# The resulting titration curves were fitted with Origin (OriginLab Corporation, v.6.1057, Northampton, USA) using a binding isotherm for a bimolecular interaction (Eq. 1):1 Fabs=Fmaxprot/Kd+prot Fabs represents the intensity of a microarray spot after background correction and [prot] the concentration of the titrated binder. Kd and Fmax were obtained from the fits.
# To render this approach quantitative, first the affinities of the α-pY antibody towards the phosphotyrosine motifs of the microarrays were determined. […] The titration curves were fitted with a binding isotherm for a bimolecular interaction (Eq. 1, Fig. 2a, Table 1). In general, a coefficient of determination (R^2) of 0.8 was used as a cutoff in order to score a peptide as a binder. […] Regarding the poly-proline motif (PP) containing peptides present on the microarray, only on the peptide GAB2-509 in five experiments, a titration curve with an R^2 > 0.8 could be generated.
# [2] = test system: proteins in Jurkat cell lysate (total cellular proteome); assay: Competition of α-pY antibody binding with Jurkat cell lysate on peptide microarrays; details: for Kd: from EC50 and Kd α-pY by Cheng-Prusoff equation (Eq. 4), ± standard deviation
# Protocol: as §1, §2
# (§5) Jurkat T cell leukaemia cells were maintained in RPMI 1640 medium (PAN-Biotech, Aisenbach, Germany) supplemented with 10 % foetal calf serum at 37 °C in 5 % CO2. For the preparation of lysates, cells were resuspended in lysis buffer (1 % Triton X-100, 50 mM n-octyl-D-glucopyranoside (Fluka, Taufkirchen, Germany), 20 mM Tris, 1 mM EDTA, 150 mM NaCl, 1 mM Na3VO4, pH 7.5, and complete protease inhibitor cocktail (Roche Applied Science, Mannheim, Germany)). Incubation on ice for 1 h was followed by centrifugation at 20,000×g at 4 °C for 15 min to remove cell debris. Transmembrane proteins were extracted from lipid rafts by using N-octyl-D-glucopyranoside. Protein concentrations were measured by Bradford Assay.
# as §3, §4
# For determination of EC50 values for competition with cell lysate, curves were fitted according to2 y=y0+Ae^−x/t with y0 as the signal intensity of the α-pY antibody or the recombinant GRB2-SH2 domain without cell lysate, A the amplitude, x the protein concentration in lysate, and t the decay constant. […]
# [3] = test system: proteins in Jurkat cell lysate (total cellular proteome); assay: Competition of recombinant GRB2-SH2 binding with cell lysate on peptide microarrays
# Protocol: as §5
# The PCR product of the SH2 domain of GRB2 (GRB2-SH2) was cloned into the pET160/GW/D-TOPO vector (Invitrogen, Breda, The Netherlands), which contains a region encoding for a His-tag. The plasmid was used to perform a transformation into One Shot TOP10 competent cells (Invitrogen). […] The concentration of expressed protein was determined by photometric measurements at OD280. The concentration of GRB2-SH2 was determined in Western blots by quantitatively analysing obtained bands of purified GRB2-SH2 in an Odyssey Infrared Imaging System (Li-Cor Biosciences, Bad Homburg, Germany) in comparison with a bovine serum albumin (BSA) standard. […]
# [4] = test system: SH2 domain of GRB2 (GRB2-SH2); details: cited from earlier work; for binding to GRB2 / GRB2-SH2 (in words): Kd values of GRB2-SH2 described in recently published manuscript, ref [14]
# Excerpt: In contrast, the data points for LATpY191 and SHP1pY564, and SigpY437, ZAPpY319 and CDζpY72/83 were above or below the linear correlation defined by the first four peptides. […] SigpY437, in contrast, is a poor binder for which already low concent ...
Compound,affinity of the α-pY antibody (in words) [1],Kd [1],Kd [2],"loss of signal of the α-pY antibody on competition with cell lysate ([2]; result in words, Jurkat lysate up to 180 μM total protein)",competition of GRB2-SH2 by cell lysate (in words) [3],"affinity for the SH2 domain of GRB2 (in words) ([4]; ref [25], [26])","affinity for the SH2 domain of GRB2 (in words) ([4]; same as stated for LATpY191 (strong affinity for SH2 domain of GRB2), ref [27])",binding to GRB2 / GRB2-SH2 (in words) [4]
CC(C)C[C@H](NC(=O)[C@H](CCC(=O)O)NC(=O)[C@H](CCC(N)=O)NC(=O)[C@H](CO)NC(=O)[C@@H](NC(=O)[C@H](CC(N)=O)NC(=O)[C@@H](NC(=O)[C@H](Cc1ccc(OP(=O)(O)O)cc1)NC(=O)[C@H](CCC(=O)O)NC(=O)[C@H](CCCNC(=N)N)NC(=O)[C@H](CO)NC(=O)CNC(=O)[C@H](CC(=O)O)NC(=O)[C@H](CC(C)C)NC(=O)[C@H](CO)NC(=O)[C@H](C)NC(=O)[C@H](CCC(=O)O)NC(=O)[C@@H](N)CS)C(C)C)C(C)C)C(N)=O [LATpY191] (H-CEASLDGSRE[pY]VNVSQEL-NH2),high affinity,0.00035 ± 0.00028 µM,16 ± 15 µM,total loss of signal,rather small competition,strong affinity,–,–
CC(C)C[C@H](NC(=O)[C@H](CC(N)=O)NC(=O)[C@H](CCC(=O)O)NC(=O)[C@H](Cc1ccc(OP(=O)(O)O)cc1)NC(=O)[C@@H](NC(=O)[C@H](CC(=O)O)NC(=O)[C@H](CCC(=O)O)NC(=O)[C@H](CCCCN)NC(=O)[C@H](Cc1c[nH]cn1)NC(=O)[C@H](CCCCN)NC(=O)[C@H](CO)NC(=O)[C@@H](N)CS)C(C)C)C(=O)N[C@@H](Cc1c[nH]cn1)C(=O)N[C@H](C(=O)N[C@@H](CCCCN)C(=O)N[C@@H](CC(N)=O)C(=O)N[C@@H](CCCCN)C(N)=O)[C@@H](C)O [SHP1pY564] (H-CSKHKEDV[pY]ENLHTKNK-NH2),relatively low affinity,0.00089 ± 0.00057 µM,17 ± 10 µM,–,–,–,The same holds true,–
CC[C@H](C)[C@H](NC(=O)[C@H](CCC(=O)O)NC(=O)[C@H](CCCNC(=N)N)NC(=O)[C@H](CCC(=O)O)NC(=O)[C@H](CCC(=O)O)NC(=O)CNC(=O)[C@@H](N)CS)C(=O)N[C@@H](CCC(N)=O)C(=O)N[C@@H](Cc1ccc(OP(=O)(O)O)cc1)C(=O)N[C@@H](C)C(=O)N1CCC[C@H]1C(=O)N[C@@H](CC(C)C)C(=O)N[C@@H](CO)C(=O)N[C@@H](Cc1ccccc1)C(=O)N[C@@H](Cc1c[nH]cn1)C(=O)N[C@@H](CCCCN)C(=O)NCC(N)=O [SigpY437] (H-CGEEREIQ[pY]APLSFHKG-NH2),–,0.00066 ± 0.00046 µM,22 ± 20 µM,–,already low concentrations of lysate show full competition,–,–,poor binder
CC[C@H](C)[C@H](NC(=O)[C@H](CCCNC(=N)N)NC(=O)[C@H](C)NC(=O)[C@@H]1CCCN1C(=O)[C@H](CCC(=O)O)NC(=O)[C@@H]1CCCN1C(=O)[C@@H](NC(=O)[C@H](Cc1ccc(OP(=O)(O)O)cc1)NC(=O)CNC(=O)[C@H](CC(=O)O)NC(=O)[C@H](CO)NC(=O)[C@H](CC(N)=O)NC(=O)[C@H](CC(C)C)NC(=O)[C@@H](NC(=O)[C@H](CC(=O)O)NC(=O)[C@@H](NC(=O)[C@@H](N)CS)[C@@H](C)CC)[C@@H](C)O)[C@@H](C)O)C(=O)N[C@H](C(N)=O)[C@@H](C)O [ZAPpY296] (H-CIDTLNSDG[pY]TPEPARIT-NH2),relatively low affinity,0.00132 ± 0.00059 µM,27 ± 28 µM,–,–,–,–,good binder

# Source: publication PMC4830892, “A microarray-based approach to evaluate the functional significance of protein-binding motifs” (Analytical and Bioanalytical Chemistry, 2016)
